ChEMBL document CHEMBL4400571, “Essential structure of orexin 1 receptor antagonist YNT-707, part III: Role of the 14-hydroxy and the 3-methoxy groups in antagonistic activity toward the orexin 1 receptor in YNT-707 derivatives lacking the 4,5-epoxy ring” (Bioorg Med Chem, 2019)

What was measured:
Orexin receptor type 2 = target: T1, Orexin receptor type 2 (Homo sapiens, UniProt O43614); assay: Antagonist activity at human OX2 receptor expressed in CHOK1 cells assessed as inhibition of orexin-A-induced calcium mobilization preincubated for 15 mins followed by orexin-A addition and measured by FURA 2-AM dye based fluorescence assay; format: functional, cell-based
T1 sequence (O43614 whole entry): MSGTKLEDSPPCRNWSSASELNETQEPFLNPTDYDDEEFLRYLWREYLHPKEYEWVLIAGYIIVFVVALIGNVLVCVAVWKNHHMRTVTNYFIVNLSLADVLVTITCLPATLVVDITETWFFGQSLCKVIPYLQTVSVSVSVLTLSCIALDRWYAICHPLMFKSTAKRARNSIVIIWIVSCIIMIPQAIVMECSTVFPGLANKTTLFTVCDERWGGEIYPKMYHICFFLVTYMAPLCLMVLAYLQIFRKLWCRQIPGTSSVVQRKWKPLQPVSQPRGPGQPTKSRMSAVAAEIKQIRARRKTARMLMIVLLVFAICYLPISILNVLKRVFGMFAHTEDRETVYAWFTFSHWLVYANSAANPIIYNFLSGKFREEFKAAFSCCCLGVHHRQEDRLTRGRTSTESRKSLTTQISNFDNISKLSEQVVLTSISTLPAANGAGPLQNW

[1] = target: T2, Orexin/Hypocretin receptor type 1 (Homo sapiens, UniProt O43613); assay: Antagonist activity at human OX1 receptor expressed in CHOK1 cells assessed as inhibition of orexin-A-induced calcium mobilization preincubated for 15 mins followed by orexin-A addition and measured by FURA 2-AM dye based fluorescence assay; format: functional, cell-based
T2 sequence (O43613 whole entry): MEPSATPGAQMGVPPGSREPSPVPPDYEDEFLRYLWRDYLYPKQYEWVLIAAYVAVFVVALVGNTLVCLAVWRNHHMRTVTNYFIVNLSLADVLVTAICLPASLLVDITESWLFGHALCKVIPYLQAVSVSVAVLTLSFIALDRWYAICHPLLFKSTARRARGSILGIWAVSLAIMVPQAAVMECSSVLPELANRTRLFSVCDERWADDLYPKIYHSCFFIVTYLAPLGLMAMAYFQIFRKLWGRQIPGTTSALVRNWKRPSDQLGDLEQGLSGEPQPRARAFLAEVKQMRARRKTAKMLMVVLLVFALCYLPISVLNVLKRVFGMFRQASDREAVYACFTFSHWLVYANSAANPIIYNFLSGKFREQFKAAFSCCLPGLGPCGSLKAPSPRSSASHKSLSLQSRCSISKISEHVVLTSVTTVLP

CN(C(=O)/C=C/c1ccoc1)[C@@H]1CC[C@@]2(O)[C@H]3CC4=C(CCCC4)[C@@]2(CCN3S(=O)(=O)c2ccccc2)C1
Ki (Orexin receptor type 2): > 10000 nM | Ki [1]: > 10000 nM

COc1ccc2c(c1)[C@]13CCN(S(=O)(=O)c4ccccc4)[C@H](C2)[C@]1(O)CC[C@@H](N(C)C(=O)/C=C/c1ccoc1)C3
Ki (Orexin receptor type 2): > 10000 nM

COc1ccc2c(c1)[C@]13CCN(S(=O)(=O)c4ccccc4)[C@H](C2)C1=CC[C@H](N(C)C(=O)/C=C/c1ccoc1)C3
Ki (Orexin receptor type 2): > 10000 nM | Ki [1]: 502 nM

CN(C(=O)/C=C/c1ccoc1)[C@H]1CC[C@@]2(O)[C@H]3Cc4ccccc4[C@@]2(CCN3S(=O)(=O)c2ccccc2)C1
Ki (Orexin receptor type 2): 173 nM | Ki [1]: 9.35 nM

COc1ccc2c3c1O[C@H]1[C@H](N(C)C(=O)/C=C/c4ccoc4)CC[C@@]4(O)[C@@H](C2)N(S(=O)(=O)c2ccccc2)CC[C@]314
Ki (Orexin receptor type 2): > 10000 nM

COc1ccc2c(c1)[C@]13CCN(S(=O)(=O)c4ccccc4)[C@H](C2)[C@@H]1CC[C@@H](N(C)C(=O)/C=C/c1ccoc1)C3
Ki (Orexin receptor type 2): > 10000 nM | Ki [1]: 5.51 nM

CN(C(=O)/C=C/c1ccoc1)[C@@H]1CC[C@@]2(O)[C@H]3Cc4ccccc4[C@@]2(CCN3S(=O)(=O)c2ccccc2)C1
Ki (Orexin receptor type 2): > 10000 nM | Ki [1]: 461 nM

COc1ccc2c(c1)[C@]13CCN(S(=O)(=O)c4ccccc4)[C@H](C2)C1=CC[C@@H](N(C)C(=O)/C=C/c1ccoc1)C3
Ki (Orexin receptor type 2): > 10000 nM | Ki [1]: 5.89 nM

CN(C(=O)/C=C/c1ccoc1)[C@H]1CC[C@@]2(O)[C@H]3CC4=C(CCCC4)[C@@]2(CCN3S(=O)(=O)c2ccccc2)C1
Ki (Orexin receptor type 2): 91.9 nM | Ki [1]: 7.45 nM

COc1ccc2c(c1)[C@]13CCN(S(=O)(=O)c4ccccc4)[C@H](C2)[C@@H]1CC[C@H](N(C)C(=O)/C=C/c1ccoc1)C3
Ki (Orexin receptor type 2): 79.9 nM | Ki [1]: 4.34 nM
